Laboratory results: patent US12291553B2, “Non-opioid anti-pain medication” (priority 2020, dated 2025)
Like-named read-outs stand apart in the source and are kept apart here. Residues, ends and D or L forms follow the SMILES beside them. *: point of attachment. Cbz = O=C(OCc1ccccc1)*; OtBu = CC(C)(C)O*

Columns and labels:
[1] = tested on: normal mechanical sensitivity; assay: Normal mechanical sensitivity, von Frey stimulation of normal skin; conditions: intraplantar injection, 3 ul
Description: (§4) Schemes illustrate the experimental design testing the effect of local and intrathecal PW164 on normal mechanical sensitivity (left) and capsaicin-induced mechanical hypersensitivity (right), respectively. […] Drugs were given at the indicated concentrations in a final injected volume of 3 ul (A) or 5 ul (B); in panel B, drugs were injected 30 min after Cap injection.
(§5) In animals, hypersensitivity is manifested as increased withdrawals from von Frey filament stimulations of the injection site (FIG. 7).

[2] = Whole blood stability; assay type: in vitro ADME
Description: (§1) FIG. 12. In vitro studies of PW164 plasma and blood metabolic stability in rodent and preclinical human models. Intestinal absorption using the P-glycoprotein (P-gp) inhibition (IC50) assay as well as activity against the human cardiac ERG channel (hERG) as well as liver toxicity tests against various isoforms of the cytochrome P450 were conducted. […] This might be favorable for peripheral therapeutics with the advantage of no brain-associated side toxicity effects.

[3] = DMPK profile, oral and intravenous dosing; assay type: in vivo; conditions: oral 20 mg/kg, mouse
Description: Relevant parameters such as half-time (t1/2), maximal concentration (Cmax), area under the curve (AUC), apparent volume of distribution at steady state (Vss), clearance (CL) and bioavailability (% F) were calculated in a mouse model.

[4] = target: T1, full length luciferase (Photinus pyralis, UniProt P08659); assay: Full length luciferase counter-screen in transiently transfected HEK293 cells; assay type: cell-based
T1 construct: PW164 has no effect on full length luciferase in transiently transfected HEK293 cells; expressed in transfected cells; host or cells: HEK293
T1 sequence (P08659 whole entry, species assumed): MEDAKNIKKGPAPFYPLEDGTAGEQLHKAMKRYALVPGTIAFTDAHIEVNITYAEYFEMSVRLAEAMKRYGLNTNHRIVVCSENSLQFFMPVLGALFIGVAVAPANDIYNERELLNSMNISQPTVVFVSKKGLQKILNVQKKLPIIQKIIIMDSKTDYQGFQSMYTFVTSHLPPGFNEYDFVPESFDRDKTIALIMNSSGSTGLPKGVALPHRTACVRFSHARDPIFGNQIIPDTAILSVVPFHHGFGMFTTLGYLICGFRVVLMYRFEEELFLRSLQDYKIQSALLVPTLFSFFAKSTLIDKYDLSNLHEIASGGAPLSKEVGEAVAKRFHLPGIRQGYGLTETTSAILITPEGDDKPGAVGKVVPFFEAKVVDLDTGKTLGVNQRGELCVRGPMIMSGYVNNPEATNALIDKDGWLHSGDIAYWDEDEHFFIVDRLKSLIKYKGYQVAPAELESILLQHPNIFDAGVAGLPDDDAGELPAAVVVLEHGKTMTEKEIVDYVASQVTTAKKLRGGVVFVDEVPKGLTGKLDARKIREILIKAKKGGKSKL
Source text: (§2) FIG. 3. PW164 inhibits FGF13-1b but not FGF13-1a binding to the Nav1.6 C-tail. […] Data are normalized with respect to 0.5% DMSO (vehicle). (C) PW164 has no effect on full length luciferase in transiently transfected HEK293 cells. (D) PW164 is not toxic toward HEK293 cells using the LDH cytotoxicity assay.

[5] = target: T2, FGF13-1b:Nav1.6 C-tail complex (Homo sapiens, UniProt Q9UQD0); assay: Split-luciferase complementation assay (LCA), FGF13-1b:Nav1.6 C-tail complex; assay type: cell-based; conditions: LCA dose response, normalized to 0.5% DMSO; read-out: IC50, prevention of FGF13:Nav1.6 complex assembly
T2 construct: luciferase fragment (split-luciferase half); expressed in transfected cells
T2 sequence (Q9UQD0 1763-1980 limits assumed, one chain of several): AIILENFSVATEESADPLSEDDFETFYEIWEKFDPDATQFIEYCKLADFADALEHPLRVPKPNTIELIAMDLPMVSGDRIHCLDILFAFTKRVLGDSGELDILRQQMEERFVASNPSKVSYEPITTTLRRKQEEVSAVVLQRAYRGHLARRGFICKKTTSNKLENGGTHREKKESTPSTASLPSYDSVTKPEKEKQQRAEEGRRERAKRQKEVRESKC
Source text: In-cell reconstitution of FGF13: Nav1.6 complexes using the split-luciferase assay. […] B. Luminescence-based complementation assay (LCA) of the FGF13-1a:Nav1.6 (solid dots) and FGF13-1b:Nav1.6 C-tail complex (open dots); control conditions are depicted in black; corresponding dark red dots refer to LCA complexes in the presence of the tyrosine kinase inhibitor MNS used as negative control.

[6] = tested on: HEK293 cells; assay type: cell-based
Source text: as §2

[7] = tested on: capsaicin-induced mechanical hypersensitivity; assay: Capsaicin-induced pain model, von Frey mechanical hypersensitivity; assay type: in vivo, mice
[8] = tested on: mechanical hypersensitivity at the surgical wound; assay: Plantar incision model of post-operative pain; assay type: in vivo, mice; conditions: administered to the wound, 3 μL
Source text: FIG. 10. […] After plantar incision, mice develop profound mechanical hypersensitivity to LVF at the surgical wound (scheme).

[9] = tested on: cytochrome P450; assay: Cytochrome P450 isoform tests; assay type: in vitro ADME; conditions: various isoforms
Description: as §1

[10] = target: T3, FGF13-1a:Nav1.6 (Homo sapiens, UniProt Q9UQD0); assay: Split-luciferase complementation assay (LCA), FGF13-1a:Nav1.6 complex; assay type: cell-based; conditions: LCA dose response, normalized to 0.5% DMSO
T3 construct: luciferase fragment (split-luciferase half); expressed in transfected cells
T3 sequence (Q9UQD0 1763-1980 limits assumed): as the sequence (Q9UQD0 1763-1980 limits assumed, one chain of several) above
Source text: FIG. 2. In-cell reconstitution of FGF13: Nav1.6 complexes using the split-luciferase assay. A. Principle of split-luciferase assay. B. Luminescence-based complementation assay (LCA) of the FGF13-1a:Nav1.6 (solid dots) and FGF13-1b:Nav1.6 C-tail complex (open dots); control conditions are depicted in black; corresponding dark red dots refer to LCA complexes in the presence of the tyrosine kinase inhibitor MNS used as negative control. C,D. Summary bar graphs depicting assay robustness with respective Z′ score calculations for each LCA complex.
as §2

[11] = target: human cardiac ERG channel (hERG) (Homo sapiens, UniProt Q12809); assay: hERG channel activity
human cardiac ERG channel (hERG), sequence (Q12809 whole entry): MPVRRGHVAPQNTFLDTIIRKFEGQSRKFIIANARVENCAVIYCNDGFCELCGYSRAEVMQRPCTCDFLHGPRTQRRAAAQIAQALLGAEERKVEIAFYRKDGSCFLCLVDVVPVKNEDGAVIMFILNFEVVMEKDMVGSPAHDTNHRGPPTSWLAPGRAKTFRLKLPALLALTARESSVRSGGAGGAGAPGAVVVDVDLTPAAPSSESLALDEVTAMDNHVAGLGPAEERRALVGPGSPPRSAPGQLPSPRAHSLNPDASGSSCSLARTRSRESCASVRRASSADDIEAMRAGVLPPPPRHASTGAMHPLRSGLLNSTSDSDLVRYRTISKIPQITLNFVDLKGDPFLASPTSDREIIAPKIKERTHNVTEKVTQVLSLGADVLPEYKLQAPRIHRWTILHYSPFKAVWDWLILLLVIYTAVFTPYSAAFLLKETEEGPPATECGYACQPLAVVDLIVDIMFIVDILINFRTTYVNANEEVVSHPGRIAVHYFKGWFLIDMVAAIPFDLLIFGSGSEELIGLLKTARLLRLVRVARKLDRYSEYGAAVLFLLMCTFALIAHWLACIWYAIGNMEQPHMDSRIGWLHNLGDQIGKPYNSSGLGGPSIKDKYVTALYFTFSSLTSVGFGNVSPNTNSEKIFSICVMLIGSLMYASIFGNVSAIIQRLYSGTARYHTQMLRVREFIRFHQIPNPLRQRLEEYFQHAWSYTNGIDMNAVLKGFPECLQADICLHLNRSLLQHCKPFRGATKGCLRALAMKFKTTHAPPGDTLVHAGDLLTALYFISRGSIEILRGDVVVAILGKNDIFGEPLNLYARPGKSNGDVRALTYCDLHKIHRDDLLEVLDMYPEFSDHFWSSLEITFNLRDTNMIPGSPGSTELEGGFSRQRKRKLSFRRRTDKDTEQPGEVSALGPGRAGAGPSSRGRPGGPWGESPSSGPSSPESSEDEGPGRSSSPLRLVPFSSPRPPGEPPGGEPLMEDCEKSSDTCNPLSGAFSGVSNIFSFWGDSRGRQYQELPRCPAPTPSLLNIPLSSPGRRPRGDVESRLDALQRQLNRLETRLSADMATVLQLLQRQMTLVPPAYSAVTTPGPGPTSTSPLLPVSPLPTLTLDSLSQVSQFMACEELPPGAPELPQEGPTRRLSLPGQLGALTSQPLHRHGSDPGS
Description: as §1

[12] = Plasma metabolic stability; assay type: in vitro ADME
Description: as §1

[13] = tested on: normal mechanical sensitivity; conditions: mouse, in vivo
Description: as §4, §5

[14] = target: T4, Nav1.6 (Homo sapiens, UniProt Q9UQD0); assay: Patch-clamp, Na+ transient currents in HEK-Nav1.6 cells; assay type: cell-based; conditions: 50 μM
T4 construct: expressed in transfected cells; host or cells: HEK-Nav1.6 cells
T4 sequence (Q9UQD0 whole entry): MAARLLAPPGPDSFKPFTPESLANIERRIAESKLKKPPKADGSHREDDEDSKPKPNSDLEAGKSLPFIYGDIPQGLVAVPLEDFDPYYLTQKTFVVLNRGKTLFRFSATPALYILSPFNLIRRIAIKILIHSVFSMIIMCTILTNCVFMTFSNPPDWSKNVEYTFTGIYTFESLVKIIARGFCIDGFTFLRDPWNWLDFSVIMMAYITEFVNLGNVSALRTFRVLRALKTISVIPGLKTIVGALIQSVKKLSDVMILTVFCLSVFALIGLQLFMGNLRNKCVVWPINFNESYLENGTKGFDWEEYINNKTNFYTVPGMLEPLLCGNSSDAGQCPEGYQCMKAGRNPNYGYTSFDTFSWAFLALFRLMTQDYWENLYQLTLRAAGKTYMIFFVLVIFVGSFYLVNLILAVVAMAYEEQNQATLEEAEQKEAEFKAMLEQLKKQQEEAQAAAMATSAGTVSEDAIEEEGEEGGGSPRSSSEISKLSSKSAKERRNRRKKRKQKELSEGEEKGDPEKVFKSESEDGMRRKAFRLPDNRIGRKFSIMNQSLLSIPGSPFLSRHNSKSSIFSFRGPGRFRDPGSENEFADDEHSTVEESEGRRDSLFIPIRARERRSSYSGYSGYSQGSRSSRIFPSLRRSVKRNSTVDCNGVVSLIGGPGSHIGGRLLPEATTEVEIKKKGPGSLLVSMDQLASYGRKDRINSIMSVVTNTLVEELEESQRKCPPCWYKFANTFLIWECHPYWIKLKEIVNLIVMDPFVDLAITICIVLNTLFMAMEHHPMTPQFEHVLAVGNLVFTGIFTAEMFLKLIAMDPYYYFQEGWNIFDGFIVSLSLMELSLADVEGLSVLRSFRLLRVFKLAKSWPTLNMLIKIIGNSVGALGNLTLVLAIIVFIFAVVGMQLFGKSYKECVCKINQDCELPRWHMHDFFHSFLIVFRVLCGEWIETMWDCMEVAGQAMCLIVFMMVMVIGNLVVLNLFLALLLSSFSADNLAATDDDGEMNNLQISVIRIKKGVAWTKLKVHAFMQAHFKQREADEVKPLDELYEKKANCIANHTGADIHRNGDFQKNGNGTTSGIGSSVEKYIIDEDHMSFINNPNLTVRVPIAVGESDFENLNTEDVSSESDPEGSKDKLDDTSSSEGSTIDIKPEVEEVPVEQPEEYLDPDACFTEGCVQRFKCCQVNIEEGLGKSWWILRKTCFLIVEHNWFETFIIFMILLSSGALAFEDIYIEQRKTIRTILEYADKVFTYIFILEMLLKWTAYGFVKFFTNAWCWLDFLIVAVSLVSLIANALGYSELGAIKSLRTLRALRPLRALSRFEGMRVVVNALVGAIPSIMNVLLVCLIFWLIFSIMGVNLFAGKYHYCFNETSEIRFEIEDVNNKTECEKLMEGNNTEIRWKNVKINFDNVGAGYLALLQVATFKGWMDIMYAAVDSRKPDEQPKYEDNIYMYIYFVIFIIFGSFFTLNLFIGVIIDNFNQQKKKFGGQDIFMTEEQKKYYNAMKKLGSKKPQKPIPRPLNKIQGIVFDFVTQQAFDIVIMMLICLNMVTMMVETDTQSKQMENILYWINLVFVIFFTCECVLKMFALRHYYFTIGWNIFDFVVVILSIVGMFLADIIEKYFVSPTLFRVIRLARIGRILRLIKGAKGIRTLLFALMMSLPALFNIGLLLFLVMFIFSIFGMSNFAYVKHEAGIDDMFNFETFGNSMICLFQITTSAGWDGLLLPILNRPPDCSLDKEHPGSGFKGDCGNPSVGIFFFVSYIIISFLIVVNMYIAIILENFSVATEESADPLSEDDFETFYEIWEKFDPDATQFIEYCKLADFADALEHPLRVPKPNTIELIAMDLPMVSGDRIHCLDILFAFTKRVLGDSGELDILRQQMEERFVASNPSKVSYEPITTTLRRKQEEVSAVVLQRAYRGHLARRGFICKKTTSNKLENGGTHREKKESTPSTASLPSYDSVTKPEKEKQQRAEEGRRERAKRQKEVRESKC
Description: FIG. 5. […] A. Representative traces of Na+ transient currents (INa+) recorded from HEK-Nav1.6 cells transiently expressing the indicated constructs in response to depolarizing voltage steps in the presence of 50 μM PW164 or DMSO. B. Current-voltage relationship (I-V) derived from A. C. Summary bar graphs derived from A,B. Data are represented as mean±SEM; n=4-8 cells per group. *p<0.05; One-WAY ANOVA, post-hoc Bonferroni.
(§3) Based on the success of other PPI regulators targeting ion channels we used the same rationale of selecting compounds that could act as a FGF13 isoform specific blocking FGF13-1b isoform effects mimicking FGF13-1a and select PW164 for functional assays. We used patch-clamp electrophysiology and begun functional validation of the lead compound using a panel of biophysical protocols targeting Nav channels (FIG. 5, 6).

[15] = target: T5, FGF13-1b:Nav1.6 channel (Homo sapiens, UniProt Q9UQD0); assay: Patch-clamp, steady-state inactivation in HEK-Nav1.6 cells expressing FGF13-1b; assay type: cell-based
T5 construct: expressed in transfected cells; host or cells: HEK-Nav1.6 cells
T5 sequence (Q9UQD0 whole entry): as above
Description: FIG. 6. […] HEK-Nav1.6 cells were transiently expressing GFP, FGF13-1b-GFP or FGF13-1a-GFP in the presence of DMSO (blue, red and dark red) 50 μM PW164 (black, green, dark green) A, Normalized current as a function of voltage (voltage dependence of steady-state inactivation) with Boltzmann fitting B Bar graph represents V1/2 of steady state inactivation. C. Normalized conductance (G/Gmax) as a function of voltage (voltage dependence of activation) with Boltzmann fitting. D. Bar graph represents V1/2 of activation. Data are represented as mean±SEM; n=4-8 cells per group. **p<0.01; One-WAY ANOVA, post-hoc Bonferroni.
as §3

Row | Normal mechanical sensation, paw withdrawal response to LVF and HVF [1] | SMILES | Human whole blood stability [2] | Oral bioavailability ([3]; intravenous 10 mg/kg) | Oral half-life [3] | Effect on full length luciferase [4] | IC50 [5] | Cytotoxicity (LDH) [6] | Capsaicin-induced mechanical hypersensitivity ([7]; intrathecal, 5 ul, 30 min after capsaicin) | Duration of effect compared to bupivacaine ([7]; local injection at capsaicin site) | Mechanical hypersensitivity to LVF and HVF von Frey stimulation ([7]; local injection at capsaicin site, 30 min after capsaicin, 3 ul) | Mechanical hypersensitivity to LVF at surgical wound [8] | CYP450s liability [9] | Effect on FGF13-1A binding to Nav1.6 [10] | hERG liability [11] | Human plasma metabolic stability [12] | Normal mechanical sensation, paw withdrawal response to LVF and HVF [13] | Effect on Na+ transient currents [14] | Availability of FGF13-1b:Nav1.6 channel pool ([15]; 50 μM, HEK-Nav1.6 cells expressing FGF13-1b-GFP) | Shift in V1/2 of steady-state inactivation ([15]; in the presence of FGF13-1b)
1 | complete sensory block | CCCCN1CCCCC1C(=O)Nc1c(C)cccc1C (stereo not shown) [bupivacaine] | – | – | – | – | – | – | – | – | – | – | – | – | – | – | – | – | – | –
2 | – | COC(=O)[C@@H](NC(=O)[C@H](CCC(=O)OC(C)(C)C)NC(=O)[C@H](CC(C)C)NC(=O)[C@@H]1CCCN1C(=O)OCc1ccccc1)C(C)C [PW164, Benzyl(S)-2-(((S)-1-(((S)-5-(tert-butoxy)-1-(((S)-1-methoxy-3-methyl-1-oxobutan-2-yl)amino)-1,5-dioxopentan-2-yl)amino)-4-methyl-1-oxopentan-2-yl)carbamoyl) pyrrolidine-1-carboxylate] (Cbz-PLE(OtBu)V-OMe) | high | moderate | moderate | no effect | 17.8 µM | not toxic | does not inhibit | longer-lasting effects without completely blocking mechanical sensation | dose-dependently inhibits mechanical hypersensitivity | inhibits the hypersensitivity | no hERG and CYP450s liabilities | does not have a significant effect | no hERG and CYP450s liabilities | high | no changes in paw withdrawal response | acts as a FGF13-1a mimic on transient Na+ currents | decreases availability | hyperpolarizing shift
